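Cultured in 96-well plates, cells were exposed to test compound for 48 hours across five concentrations. At the GI50, growth is halved.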 Activity calls are given as the source filed them. No stated cut-off is given here; in the data, active = GI50 up to about 1.1 µM and inactive = higher.
Key:
Test in all cases: inhibition of tumour cell growth, NCI panel, 48 h
SK-MEL-5 = system: SK-MEL-5
SN12C = system: SN12C
UACC-257 = system: UACC-257
SK-OV-3 = system: SK-OV-3
A498 = system: A498
HOP-18 = system: HOP-18
NCI-H460 = system: NCI-H460
A549 = system: A549
SF-539 = system: SF-539
K562 = system: K562
HOP-62 = system: HOP-62
DMS-273 = system: DMS-273
DLD-1 = system: DLD-1
SNB-75 = system: SNB-75
SNB-78 = system: SNB-78
LXFL 529 = system: LXFL 529
MOLT-4 = system: MOLT-4
ACHN = system: ACHN
HCT-116 = system: HCT-116
HCT-15 = system: HCT-15
HCC 2998 = system: HCC 2998
UACC-62 = system: UACC-62
NCI-H522 = system: NCI-H522
HL-60 = system: HL-60
HOP-92 = system: HOP-92
U-251 = system: U-251
SF-295 = system: SF-295
KM12 = system: KM12
SK-MEL-28 = system: SK-MEL-28
CAKI-1 = system: CAKI-1
786-0 = system: 786-0
Malme-3M = system: Malme-3M
SW-620 = system: SW-620
UO-31 = system: UO-31
HT-29 = system: HT-29
IGROV-1 = system: IGROV-1
COLO 205 = system: COLO 205
OVCAR-8 = system: OVCAR-8
SF-268 = system: SF-268
KM-20L2 = system: KM-20L2
OVCAR-5 = system: OVCAR-5
SK-MEL-2 = system: SK-MEL-2
M19-MEL = system: M19-MEL
EKVX = system: EKVX
CCRF-CEM = system: CCRF-CEM
OVCAR-3 = system: OVCAR-3
OVCAR-4 = system: OVCAR-4
TK-10 = system: TK-10
SNB-19 = system: SNB-19
LOX IMVI = system: LOX IMVI
M14 = system: M14
DMS-114 = system: DMS-114
NCI-H23 = system: NCI-H23
RXF 393 = system: RXF 393
SR = system: SR
NCI-H226 = system: NCI-H226
NCI/ADR-RES = system: NCI/ADR-RES
MCF7 = system: MCF7
XF498 = system: XF498
RPMI-8226 = system: RPMI-8226

Compound: CCC1(N=[N+]=[N-])C(=O)Nc2cc(C)ccc2C1=O (stereo not drawn)
- GI50 (SK-MEL-5): 51.8 µM (inactive)
- GI50 (SN12C): 48.6 µM (inactive)
- GI50 (UACC-257): 96.4 µM (inactive)
- GI50 (SK-OV-3): > 100 µM (inactive)
- GI50 (A498): > 100 µM (inactive)
- GI50 (HOP-18): 32.6 µM (inactive)
- GI50 (NCI-H460): > 100 µM (inactive)
- GI50 (A549): > 100 µM (inactive)
- GI50 (SF-539): > 100 µM (inactive)
- GI50 (K562): 47.5 µM (inactive)
- GI50 (HOP-62): > 100 µM (inactive)
- GI50 (DMS-273): 23 µM (inactive)
- GI50 (DLD-1): > 100 µM (inactive)
- GI50 (SNB-75): > 100 µM (inactive)
- GI50 (SNB-78): 86.1 µM (inactive)
- GI50 (LXFL 529): 38 µM (inactive)
- GI50 (MOLT-4): 39.4 µM (inactive)
- GI50 (ACHN): 22.3 µM (inactive)
- GI50 (HCT-116): > 100 µM (inactive)
- GI50 (HCT-15): 72.1 µM
- GI50 (HCC 2998): > 100 µM (inactive)
- GI50 (UACC-62): 62.2 µM (inactive)
- GI50 (NCI-H522): 4.25 µM (inactive)
- GI50 (HL-60): 21.3 µM (inactive)
- GI50 (HOP-92): 46.1 µM (inactive)
- GI50 (U-251): 96.2 µM (inactive)
- GI50 (SF-295): > 100 µM (inactive)
- GI50 (KM12): > 100 µM (inactive)
- GI50 (SK-MEL-28): > 100 µM (inactive)
- GI50 (CAKI-1): 36.9 µM (inactive)
- GI50 (786-0): > 100 µM (inactive)
- GI50 (Malme-3M): 68.1 µM (inactive)
- GI50 (SW-620): > 100 µM (inactive)
- GI50 (UO-31): 46.7 µM (inactive)
- GI50 (HT-29): 89.9 µM (inactive)
- GI50 (IGROV-1): > 100 µM (inactive)
- GI50 (COLO 205): 69.3 µM (inactive)
- GI50 (OVCAR-8): > 100 µM (inactive)
- GI50 (SF-268): > 100 µM (inactive)
- GI50 (KM-20L2): > 100 µM (inactive)
- GI50 (OVCAR-5): > 100 µM (inactive)
- GI50 (SK-MEL-2): > 100 µM (inactive)
- GI50 (M19-MEL): 60.3 µM (inactive)
- GI50 (EKVX): 42.7 µM (inactive)
- GI50 (CCRF-CEM): 34.3 µM (inactive)
- GI50 (OVCAR-3): 45.6 µM (inactive)
- GI50 (OVCAR-4): > 100 µM (inactive)
- GI50 (TK-10): > 100 µM (inactive)
- GI50 (SNB-19): > 100 µM (inactive)
- GI50 (LOX IMVI): 86.5 µM (inactive)
- GI50 (M14): 76.7 µM (inactive)
- GI50 (DMS-114): 38.1 µM (inactive)
- GI50 (NCI-H23): 70.1 µM (inactive)

Compound: COC1OC2=CCC3C(=O)NC(=O)C3C2[C@H](OCc2ccccc2)C1OCc1ccccc1 (stereo partly drawn)
- GI50 (SK-MEL-5): 19 µM (inactive)
- GI50 (SN12C): 1.74 µM (inactive)
- GI50 (UACC-257): 2.09 µM (inactive)
- GI50 (SK-OV-3): 17.1 µM (inactive)
- GI50 (HOP-18): 3.48 µM (inactive)
- GI50 (NCI-H460): 17.9 µM (inactive)
- GI50 (A549): 18.9 µM (inactive)
- GI50 (SF-539): 17.3 µM (inactive)
- GI50 (K562): 1.82 µM (inactive)
- GI50 (HOP-62): 17.9 µM (inactive)
- GI50 (DLD-1): 1.97 µM (inactive)
- GI50 (SNB-75): 17.3 µM (inactive)
- GI50 (RXF 393): 1.61 µM (inactive)
- GI50 (SNB-78): 2.03 µM (inactive)
- GI50 (LXFL 529): 1.68 µM (inactive)
- GI50 (MOLT-4): 1.5 µM (inactive)
- GI50 (ACHN): 19.9 µM (inactive)
- GI50 (HCT-116): 1.55 µM (inactive)
- GI50 (HCT-15): 1.93 µM
- GI50 (HCC 2998): 3.74 µM (inactive)
- GI50 (UACC-62): 2.46 µM (inactive)
- GI50 (NCI-H522): 1.67 µM (inactive)
- GI50 (HL-60): 1.79 µM (inactive)
- GI50 (HOP-92): 1.63 µM (inactive)
- GI50 (U-251): 18.7 µM (inactive)
- GI50 (SF-295): 18.1 µM (inactive)
- GI50 (KM12): 5.9 µM (inactive)
- GI50 (SK-MEL-28): 1.84 µM (inactive)
- GI50 (Malme-3M): 1.77 µM (inactive)
- GI50 (SW-620): 1.49 µM (inactive)
- GI50 (UO-31): 17.7 µM (inactive)
- GI50 (SR): 2.1 µM (inactive)
- GI50 (HT-29): 1.82 µM (inactive)
- GI50 (IGROV-1): 2.04 µM (inactive)
- GI50 (OVCAR-8): 1.6 µM (inactive)
- GI50 (KM-20L2): 2.25 µM (inactive)
- GI50 (OVCAR-5): 15.7 µM (inactive)
- GI50 (SK-MEL-2): 5.36 µM (inactive)
- GI50 (EKVX): 1.85 µM (inactive)
- GI50 (CCRF-CEM): 1.15 µM (inactive)
- GI50 (OVCAR-3): 1.71 µM (inactive)
- GI50 (OVCAR-4): 3.84 µM (inactive)
- GI50 (TK-10): 1.72 µM (inactive)
- GI50 (LOX IMVI): 1.73 µM (inactive)
- GI50 (M14): 1.81 µM (inactive)
- GI50 (NCI-H23): 2.22 µM (inactive)

Compound: C=C(C)C(=O)OC1CCC2(C)C(CCC3C2CCC2(C)C(c4ccc(=O)oc4)CC4OC432)C1 (stereo not drawn)
- GI50 (SK-MEL-5): 3.8 µM (inactive)
- GI50 (SN12C): 3.61 µM (inactive)
- GI50 (UACC-257): 2.96 µM (inactive)
- GI50 (SK-OV-3): 20.5 µM (inactive)
- GI50 (A498): 5.02 µM (inactive)
- GI50 (NCI-H226): 9.42 µM (inactive)
- GI50 (HOP-18): 13.3 µM (inactive)
- GI50 (NCI-H460): 1.25 µM (inactive)
- GI50 (A549): 2.31 µM (inactive)
- GI50 (SF-539): 5.35 µM (inactive)
- GI50 (K562): 2.69 µM (inactive)
- GI50 (HOP-62): 3.31 µM (inactive)
- GI50 (DMS-273): 3.31 µM (inactive)
- GI50 (DLD-1): 2.18 µM (inactive)
- GI50 (SNB-75): 7.38 µM (inactive)
- GI50 (RXF 393): 2.78 µM (inactive)
- GI50 (SNB-78): 5.47 µM (inactive)
- GI50 (MOLT-4): 2.41 µM (inactive)
- GI50 (HCT-116): 2.75 µM (inactive)
- GI50 (NCI/ADR-RES): 6.46 µM (inactive)
- GI50 (HCT-15): 6.78 µM
- GI50 (HCC 2998): 5.19 µM (inactive)
- GI50 (UACC-62): 3.33 µM (inactive)
- GI50 (MCF7): 2.48 µM (inactive)
- GI50 (NCI-H522): 2.95 µM (inactive)
- GI50 (HL-60): 0.57 µM (active)
- GI50 (HOP-92): 0.804 µM (active)
- GI50 (U-251): 6.73 µM (inactive)
- GI50 (SF-295): 5.07 µM (inactive)
- GI50 (KM12): 6.4 µM (inactive)
- GI50 (SK-MEL-28): 12.5 µM (inactive)
- GI50 (CAKI-1): 4.07 µM (inactive)
- GI50 (Malme-3M): 8.13 µM (inactive)
- GI50 (SW-620): 6.34 µM (inactive)
- GI50 (UO-31): 4.75 µM (inactive)
- GI50 (HT-29): 7.94 µM (inactive)
- GI50 (IGROV-1): 6.75 µM (inactive)
- GI50 (COLO 205): 8.18 µM (inactive)
- GI50 (OVCAR-8): 5.51 µM (inactive)
- GI50 (SF-268): 5.31 µM (inactive)
- GI50 (KM-20L2): 6.92 µM (inactive)
- GI50 (OVCAR-5): 30.4 µM (inactive)
- GI50 (XF498): 5.15 µM (inactive)
- GI50 (SK-MEL-2): 4.28 µM (inactive)
- GI50 (M19-MEL): 3.91 µM (inactive)
- GI50 (EKVX): 2.42 µM (inactive)
- GI50 (CCRF-CEM): 3.26 µM (inactive)
- GI50 (RPMI-8226): 1.6 µM (inactive)
- GI50 (OVCAR-3): 4.57 µM (inactive)
- GI50 (OVCAR-4): 5.75 µM (inactive)
- GI50 (SNB-19): 18.5 µM (inactive)
- GI50 (LOX IMVI): 3.82 µM (inactive)
- GI50 (DMS-114): 2.43 µM (inactive)
- GI50 (NCI-H23): 3.49 µM (inactive)

Source: ChEMBL document CHEMBL1201862, “PubChem BioAssay data set” (2004)
